{"source": "paper PMC5116268", "about": "(Journal of pharmacological and toxicological methods, 2016)", "data": [{"system": "GABAA receptor (native mixed population in iCell Neurons)", "test": "automated patch clamp", "assay_type": "cell-based, Homo sapiens", "units": {"EC50": "nM"}, "values": [{"compound": "C#Cc1ccc2c(c1)C(c1ccccn1)=NCc1c(C(=O)OCC)ncn1-2", "note": "[HZ166]", "EC50": "1560 ± 830"}, {"compound": "CN1C(=O)CN=C(c2ccccc2)c2cc(Cl)ccc21", "note": "[diazepam]", "EC50": "420 ± 120"}, {"compound": "COc1ccc(-n2nc3c4ccc(OC)cc4[nH]cc-3c2=O)cc1", "note": "[CW-04-020]", "EC50": "230 ± 70"}]}]}
